The results in this text go back to EP1113726B1, “USE OF NEOHESPERIDIN DIHYDROCHALCONE FOR THE MANUFACTURE OF A MEDICAMENT FOR PREVENTING OR TREATING ELEVATED BLOOD LIPID LEVEL-RELATED DISEASES” (Korea Research Institute of Bioscience and Biotechnology, priority 1998, dated 2000).

Format in all cases: in vivo
In data set [1] the test system is New Zealand White rabbits. In words: Microscopic grading of abnormal fat-containing cells in the liver of cholesterol-fed rabbits (fatty liver). Conditions: 1 % cholesterol diet for 6 weeks plus 1 mg/kg Lovastatin or 0.05 % neohesperidin dihydrochalcone. Here is the method:
(§1) 30 three-month-old New Zealand White rabbits(Yeonam Horticulture and Animal Husbandry College, Korea), each weighing about 2.5 to 2.6 kg, were raised under a condition of temperature 20±2°C, relative humidity 55±5 %, and photoperiod 12L/12D. The rabbits were divided into 3 groups and 3 groups of rabbits were fed with 3 different diets, i.e., RC4 diet(Oriental Yeast Co., Japan) containing 1 % cholesterol(Control group); 1 % cholesterol plus 1 mg/kg Lovastatin®(Merck, U.S.A.)(Lovastatin group); and 1 % cholesterol plus 0.05 % neohesperidin dihydrochalcone(Neohesperidin dihydrochalcone group), respectively. RC4 diet comprises 7.6 % moisture, 22.8 % crude protein, 2.8 % crude fat, 8.8 % crude ash, 14.4 % crude cellulose and 43.6 % soluble nitrogen-free substances. Neohesperidin dihydrochalcone was purchased from Sigma Chemical Co.(St. Louis, MO).
(§2) The rabbits were fed for 6 weeks while being allowed free access to the diets and water.
In order to evaluate the effects of feeding a high cholesterol diet with neohesperidin dihydrochalcone on liver tissues, the liver specimens taken from the sacrificed rabbit in Step 2 of Example 6 were treated in accordance with the procedure disclosed in Fogt F. and Nanji A., Toxicology and Applied Pharmacology, 136, 87-93, 1996; and Keegan A., et al., Journal of Hepatology 23: 591-600, 1995, and observed under a microscope to be classified into four grades, i.e., 1+(0-25%), 2+(26-50%), 3+(51-75), 4+(76-100%) based on the proportion of abnormal fat-containing cells around the central vein in the liver acinus.
Figs. 2A, 2B and 2C present the microscopic features of the livers of the rabbits administered with 1% cholesterol; 1% cholesterol plus 1 mg/kg Lovastatin®; 1% and cholesterol plus 0.05% neohesperidin dihydrochalcone, respectively.

The subject of data set [2] is New Zealand White rabbits. The data set is described as follows: Chemical analysis of blood of cholesterol-fed rabbits. Conditions: rabbit serum, 1 % cholesterol diet for 6 weeks plus 1 mg/kg Lovastatin or 0.05 % neohesperidin dihydrochalcone. Here is the method: as §1, §2
After six weeks, the rabbits were anesthetized with an intramuscular injection of ketamine (50 mg/kg) in the femoral region and sacrificed.

The subject of data set [3] is New Zealand White rabbits. The data set is described as follows: Analysis for fatty streak in the main artery of cholesterol-fed rabbits (Oil Red O staining). To be noted: 1 % cholesterol diet for 6 weeks plus 1 mg/kg Lovastatin or 0.05 % neohesperidin dihydrochalcone. On the procedure:
as §1, §2
The chest of each of the rabbits sacrificed in Step 2 was incised. The downward portion of the main artery from the site 1 cm above the aortic valve was cut out in a length of about 5 cm and the fat surrounding the main artery was removed. The main artery was incised in the middle along the longitudinal axis and pinned to a dish. The moist artery was photographed and, then, the staining of fatty streaks was carried out in accordance with the method of Esper, E., et al. (J. Lab. Clin. Med., 121, 103-110(1993)) as follows.
A part of the incised main artery was washed three times with anhydrous propylene glycol for 2 min and stained for 30 min. with a saturated solution of Oil Red O(ORO, Sigma Co.) dissolved in propylene glycol. Thereafter, the artery was washed twice with 85 % propylene glycol for 3 min. to remove remaining staining solution and, then washed with physiological saline. The artery was photographed and the photograph was traced. The area of stained region (fatty streak region) was determined with an image analyzer(LEICA, Q-600, Germany) and its proportion(%) to the total arterial area was calculated.

Turning to `CC[C@H](C)C(=O)O[C@H]1C[C@@H](C)C=C2C=C[C@H](C)[C@H](CC[C@@H]3C[C@@H](O)CC(=O)O3)[C@H]21` [Lovastatin, reference compound], in data set [1] (rabbit liver, cells around the central vein, mean of grades 1+ to 4+), the “B: Proportion of abnormal fat-containing cells” value is recorded as 3.4 (±0.5). In data set [1] (rabbits), the “microscopic features of the liver (Figs. 2B, 2C)” value is given as “many cells containing excessive fat”. Further, in data set [2], the GOT is recorded as 125 (±19) IU/1, the GPT was 73 (±9) IU/l, the Total-C is on record as 1210 (±263) mg/dl and the γ-GTP is reported as 12.4 (±0.8) IU/l. Besides, the “A: Proportion(%) of fatty streak region to the total arterial area” value in data set [3] (rabbit main artery) is 5 (±4) %. Besides, the “layer of macrophage-lipid complex on the arterial endothelium (Figs. 1B, 1C)” value in data set [3] (rabbits) is “no or very thin layers of macrophage-lipid complex”.
